# Assay results from US6653345B2, “C-C chemokine synthesis inhibitor” (Toray Industries, Inc., priority 1997, dated 2003).
# Tests used:
# [1] = system: MCP-1 production of THP-1 cells; experiment: MCP-1 production of THP-1 cells stimulated with LPS; format: cell-based, human; details: for MCP-1 production of THP-1 cells (effect in words): 10 μg/ml LPS, compound added before LPS, supernatant 24 hours after stimulation; for Inhibition rate of MCP-1 production of THP-1 cells: same method as Example 1 (LPS), concentration not given
# Experimental: The action of beraprost (BPS) on MCP-1 production was examined by using human monocyte/macrophage system leukemic cells THP-1. Lipopolysaccharide (LPS: Difco Corp.) reactive substrains were isolated from THP-1 cells (obtained from ATCC Corp.), and cultured in a RPMI 1640 medium (Gibco Corp.) containing 10% FCS in a flask. The THP-1 cells (1×10^5 cells) were dispensed to a 12-well plate, and activated with 10 μg/ml of LPS. BPS was added 5 minutes before LPS stimulation. A cell supernatant was obtained 24 hours after stimulation, and the amount of MCP-1 production was measured by using a human MCP-1 eraser kit (R&D Corp.). The amount of production was calculated based on a calibration curve formed in the range of 31.2 to 2000 pg/ml by using MCP-1 standards contained in the kit.
# The actions of prostaglandin I2 (PGI2), prostaglandin E1 (PGE1), and prostaglandin E2 (PGE2) on MCP-1 production were examined by the same method as Example 1. As a result, MCP-1 production was inhibited by PGI2, PGE1, and PGE2 (FIG. 6).
# The actions of the compounds shown in the table below on MCP-1 production by the same method as Example 1. The action of each of the compounds was shown by an inhibition rate. As a result, MCP-1 production was inhibited by these compounds (Table 2).
# [2] = system: glomerulonephritis rat model; experiment: Glomerulonephritis rat model (anti-glomerular basement membrane antibody); format: in vivo
# Experimental: A glomerular basement membrane was administered with an antibody to form a glomerulonephritis rat model. The rats used were 9-week old male WKY rats which were purchased from Japan Charles River. The antibody was obtained by immunizing the rat glomerular basement membrane against rabbits. […] A glomerular lesion such as formation of the crescent was also confirmed by pathological findings, and an irreversible glomerulonephritis model could be formed by administering the antibody to the anti-glomerular basement membrane. MCP-1 production in the kidney was increased with the passage of days after administration of the antibody to produce infiltration of leukocytes such as macrophages and the like. 1 mg/kg of BPS was orally administered on consecutive days to study the action of BPS on MCP-1 production and infiltration of the macrophages. The MCP-1 production was studied by purifying messenger RNA (mRNA) from the rat kidneys, and determining the amount of MCP-1 mRNA expression by quantitative PCR. The macrophage infiltration was studied by immunostaining with an anti-macrophage antibody (ED-1), and then counting the macrophages infiltrated into the glomeruli under a microscope. […] Using the same glomerulonephritis model, the action of BPS on the amount of urea protein was studied 4 days and 7 days after administration of the antibody.
# [3] = system: MCP-1 production of human peripheral blood monocytes; experiment: MCP-1 production of human peripheral blood monocytes stimulated with TPA; format: cell-based
# Experimental: Monocytes derived from the human peripheral blood were isolated by the same method as Example 3, and stimulated with 25 nM 12-o-tetradecanoylphorbol 13-acetate (TPA) to induce MCP-1 production. The action of BPS on MCP-1 production was studied.
# (§1) The action of prostaglandin J2 (PGJ2) on MCP-1 production due to LPS or TPA simulation was studied by the same method as Examples 3 and 8 using monocytes derived from the human peripheral blood. PGJ2 was added 1 minute before stimulation. As a result, MCP-1 production due to stimulation by either LPS or TPA was inhibited by PGJ2(Table 3).
# [4] = system: streptozotocin-induced diabetic rats; experiment: Neurotransmission rate of the ischiatic nerve in streptozotocin-induced diabetic rats; format: in vivo, rat
# [5] = system: MCP-3 production of THP-1 cells; experiment: MCP-3 production of THP-1 cells stimulated with LPS; format: cell-based, human; details: 10 μg/ml LPS, supernatant 24 hours after stimulation
# Experimental: The action of BPS on MCP-3 production was examined by using human monocyte/macrophage system leukemic cells THP-1. LPS reactive substrains were isolated from THP-1 cells, and cultured in a RPMI 1640 medium containing 10% FCS in a flask. THP-1 cells (1×10^6 cells) were dispensed to a 12-well plate, and activated with 10 μg/ml of LPS. BPS was added 5 minutes before LPS stimulation. A cell supernatant was obtained 24 hours after stimulation, and the amount of the MCP-3 produced was measured by using a MCP-3 detection method developed by the inventors. The amount of production was calculated based on a calibration curve formed in the range of 0.195 to 12.5 ng/ml by using MCP-3 standards.
# [6] = system: MCP-1 amount in blood; experiment: MCP-1 amount in LPS-induced blood of streptozotocin diabetic rats; format: in vivo, rat
# Experimental: SD male rats were intravenously administered with 45 mg/kg streptozotocin to induce diabetes. At the eighth week after 2 mg/kg of LPS was administered to the rats to measure the MCP-1 amount in the blood before administration and 3 and 6 hours after administration. BPS was orally administered to the rats 30 minutes before LPS administration. Rats of the same age as the diabetic rat group were used as a normal group.
# [7] = system: MCP-1 production of human peripheral blood monocytes; experiment: MCP-1 production of human peripheral blood-derived monocytes stimulated with LPS; format: cell-based
# Excerpt: The action of BPS on MCP-1 production was studied by using human peripheral blood-derived monocytes. The heparinized peripheral blood of a healthy person was superposed on a histo-pack (Sigma Corp.), and centrifuged to obtain a monocyte layer. The thus-obtained monocyte layer was reacted with magnetic beads (Miltenyi Biotec Corp.) of anti—CD3 and anti—CD19, and monocytes were purified by a negative selection method using a MACS column (Miltenyi Biotec Corp.). The thus-obtained monocytes were re-suspended in a RPMI 1640 medium so that 1×10^6 cells/ml of cells were obtained. The cells were dispensed to a 48-well plate, and activated with 10 ng/ml of LPS. BPS was added 5 minutes before LPS stimulation. A cell supernatant was obtained 24 hours after stimulation, and the amount of MCP-1 produced was measured by using a human MCP-1 eraser kit. The amount of production was calculated based on a calibration curve formed in the range of 31.2 to 2000 pg/ml by using MCP-1 standards contained in the kit.
# as §1
# [8] = system: MCP-1 mRNA of THP-1 cells; experiment: Expression of MCP-1 mRNA of THP-1 cells stimulated with LPS; format: cell-based, human; details: 10 μg/ml LPS, RNA 24 hours after stimulation
# Experimental: The action of BPS on MCP-1 production was examined by using human monocyte/macrophage system leukemic cells THP-1 and the amount of mRNA expression as an index. LPS reactive substrains were isolated from THP-1 cells, and cultured in a RPMI 1640 medium containing 10% FCS in a flask. THP-1 cells (1×10^6 cells) were dispensed to a petri dish having a diameter of 10 cm, and activated with 10 μg/ml of LPS. BPS was added 5 minutes before LPS stimulation. The total of RNA was extracted with a LiCl-urea solution (6M urea/3M LiCl/5 mM EDTA) 24 hours after stimulation, and dissolved in a TE solution (10 mm Tris-HCl/lmM EDTA, pH 8.0), and then proteins were removed with phenol and chloroform, followed by RNA recovery by ethanol precipitation. RNA was developed by formaldehyde-modified 1% agarose gel, and transferred to a Hybond-N filter (Amersham Corp.), and then MCP-1 mRNA was detected by using a ^32 human MCP-1 probe. The detection was carried out by using a X-ray film or imaging film, and the amount of expression was digitized by BAS2000.
# [9] = system: RANTES production of THP-1 cells; experiment: RANTES production of THP-1 cells stimulated with LPS; format: cell-based, human; details: LPS stimulation, 10 μM PGJ2 (5177 without PGJ2)
# Experimental: THP-1 cells were prepared by the same method as Example 1, and stimulated with LPS to induce RANTES production. The amount of RANTES production was measured by RANTES eraser kit (R&D Corp.). The action of PGJ2 on RANTES production was studied.
smiles,measurement,setting,value
"CCCCC[C@H](O)/C=C/[C@H]1[C@H](O)CC(=O)[C@@H]1CCCCCCC(=O)O [PGE1, prostaglandin E1]",MCP-1 production of THP-1 cells (effect in words),[1],inhibited
"CC#CCC(C)[C@H](O)/C=C/[C@@H]1[C@H]2c3cccc(CCCC(=O)O)c3O[C@H]2C[C@H]1O (mixture of isomers) [BPS, beraprost]",MCP-1 mRNA expression in kidney (effect in words),"[2]; 1 mg/kg BPS oral on consecutive days, 4 days and 7 days after antibody, quantitative PCR",inhibition
same,infiltration of macrophage per glomerulus (effect in words),"[2]; 1 mg/kg BPS oral on consecutive days, 4 days and 7 days after antibody, vs distilled water group",significantly inhibited
same,amount of urea protein (effect in words),"[2]; 1 mg/kg BPS oral, 4 days and 7 days after administration of the antibody",significantly decreased
same,MCP-1 produced,"[3]; 25 nM TPA stimulation, 100 nM BPS (224.7 without BPS)",184 pg/1×10^6 cells
same,decrease in the neurotransmission rate due to diabetes (effect in words),[4],significantly improved
same,MCP-1 production of THP-1 cells (effect in words),[1],inhibits dose-dependently
same,MCP-3 production of THP-1 cells (effect in words),[5],inhibits dose-dependently
same,MCP-1 amount in blood,"[6]; BPS oral 30 minutes before 2 mg/kg LPS, 3 hours after",7.27 ± 2.55 ng/mL
same,MCP-1 amount in blood,"[6]; BPS oral 30 minutes before 2 mg/kg LPS, 6 hours after",4.82 ± 4.40 ng/mL
same,MCP-1 amount in blood,"[6]; BPS oral 30 minutes before LPS, before LPS administration",0.39 ± 0.13 ng/mL
same,MCP-1 production of human peripheral blood monocytes (effect in words),"[7]; 10 ng/ml LPS, supernatant 24 hours after stimulation",inhibits dose-dependently
same,expression of MCP-1 mRNA of THP-1 cells (effect in words),[8],inhibits dose-dependently
O=C(O)CCc1cccc2c1O[C@H]1C[C@@H](O)C(/C=C/[C@@H](O)c3ccccc3)[C@@H]21 (stereo partly drawn),Inhibition rate of MCP-1 production of THP-1 cells,[1],58%
CC(C)(CO)Cc1cccc2c1O[C@H]1C[C@@H](O)C(/C=C/[C@@H](O)C(C)(C)Oc3ccccc3)[C@@H]21 (stereo partly drawn),Inhibition rate of MCP-1 production of THP-1 cells,[1],28%
"CCCCC[C@H](O)/C=C/[C@H]1[C@H](O)CC(=O)[C@@H]1C/C=C\CCCC(=O)O [PGE2, prostaglandin E2]",MCP-1 production of THP-1 cells (effect in words),[1],inhibited
O=C(O)COc1cccc2c1O[C@H]1C[C@@H](O)C(/C=C/[C@@H](O)c3ccccc3)[C@@H]21 (stereo partly drawn),Inhibition rate of MCP-1 production of THP-1 cells,[1],61%
"CCCCC[C@H](O)/C=C/[C@@H]1[C@H]2C/C(=C/CCCC(=O)O)O[C@H]2C[C@H]1O [PGI2, prostaglandin I2]",MCP-1 production of THP-1 cells (effect in words),[1],inhibited
CC(O)CCc1cccc2c1O[C@H]1C[C@@H](O)C(/C=C/[C@@H](O)C(C)(C)Oc3ccccc3)[C@@H]21 (stereo partly drawn),Inhibition rate of MCP-1 production of THP-1 cells,[1],4%
"CCCCC[C@H](O)/C=C/[C@H]1C(=O)C=C[C@@H]1C/C=C\CCCC(=O)O [PGJ2, prostaglandin J2]",MCP-1,[3]; TPA 25 nM + PGJ2 10 μM (225 with TPA alone),2 pg/10^6 cells
same,RANTES produced,[9],2403 pg/5×10^5 cells
same,MCP-1,[7]; LPS 10 ng/ml + PGJ2 10 μM (21872 with LPS alone),6 pg/10^6 cells
O=C(O)CCc1cccc2c1O[C@H]1C[C@@H](O)C(/C=C/[C@@H](O)CC3CCCCC3)[C@@H]21 (stereo partly drawn),Inhibition rate of MCP-1 production of THP-1 cells,[1],87%
O=C(O)CCc1cccc2c1O[C@H]1C[C@@H](O)C(/C=C/[C@@H](O)C3CCCCC3)[C@@H]21 (stereo partly drawn),Inhibition rate of MCP-1 production of THP-1 cells,[1],85%
